# Reference: PubChem BioAssay (NCI)
# Several values for one entry are separate records, joined by “and”; a condition that tells them apart may be missing. Equal entries are not always repeated.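 Dose response: 5 concentrations. Exposure: 48 h. Format: 96-well plates. Endpoint: linear interpolation; highest concentration if not reached. At the GI50, growth is halved. At the TGI there is no net growth.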
# Assays:
# Test in all cases: NCI-60 cell line screen, 48 h
# [1] = test system: DU-145 prostate
# [2] = test system: SNB-75 CNS
# [3] = test system: NCI-H226 lung
# [4] = test system: MDA-MB-435
# [5] = test system: SF-539 CNS
# [6] = test system: SK-OV-3 ovarian
# [7] = test system: ACHN renal
# [8] = test system: HS 578T breast
# [9] = test system: UO-31 renal
# [10] = test system: SF-268 CNS
# [11] = test system: LOX IMVI melanoma
SMILES,TGI [1] [µM],TGI [2] [µM],TGI [3],TGI [4],TGI [5] [µM],TGI [6] [µM],TGI [7],TGI [8],TGI [9],TGI [10],TGI [11],GI50 [3],GI50 [8],GI50 [11]
Cc1ccc(SCC(CF)OC(C)n2cnc3c(=O)[nH]c(N)nc32)cc1 (centres undefined),> 100,> 100,> 100 µM,> 100 µM,> 100,> 100,> 100 µM,> 100 µM,> 100 µM,> 100 µM,> 100 µM,–,–,–
O=c1cc(-c2ccc(F)cc2)[nH]c2ncc(Cl)cc12,> 74.4,48.7,> 56 µM,9.85 µM,97.8,> 100,> 100 µM,85 µM,> 100 µM,> 100 µM,> 100 µM,–,–,–
CCCCN1C(=O)N(c2ccc(OCC)cc2)C2N(CCCC)C1C(C)(C)C2(C)C (centres undefined),> 100,> 100,49.3 µM,97.3 µM,41.9,57,> 100 µM,75.2 µM,88.9 µM,67.7 µM,> 100 µM,–,–,–
COc1ccc2ccccc2c1/C=C/C(=O)c1ccccc1,8.89,4.01,11.1 µM,7.18 µM,7.23,11.2,11.1 µM,38.7 µM,9.36 µM,17.9 µM,10.9 µM,–,–,–
CCOC(=O)C(=Cc1[nH]c2ccccc2c1-c1c[nH]c2ccccc12)C(=O)OCC,27.1,26.4,37.5 µM,18.3 µM,39.1,49,24.5 µM,91.3 µM,26.3 µM,30.5 µM,26.7 µM,–,–,–
C(=Nc1ccc(-c2nc3ccccc3[nH]2)cc1)c1cccs1,> 100,> 100,> 100 µM,> 100 µM,> 100,> 100,> 100 µM,> 100 µM,> 100 µM,> 100 µM,> 100 µM,–,–,–
CC(C)[Si](OC1=C(C(=O)N(C)c2cccc(Cl)c2)CCCC1)(C(C)C)C(C)C,25.5,22.8,37.7 µM,29 µM,40.4,30.6,31.2 µM,30.3 µM,27.9 µM,28.6 µM,32.6 µM,–,–,–
O=C1/C(=N/O)Cc2c(Br)ccc(Br)c21,> 100,> 100,> 100 µM,> 100 µM,> 100,> 100,> 100 µM,> 100 µM,> 100 µM,> 100 µM,> 100 µM,–,–,–
O=C1/C(=C/c2ccc([N+](=O)[O-])cc2)C(=O)N(c2ccccc2)C1c1ccccc1 (centres undefined),> 10,> 10,> 10 µM,> 10 µM,> 10,> 10,> 10 µM,> 10 µM,> 10 µM,> 10 µM,> 10 µM,–,–,–
O=C1CSC(c2cccc(Oc3ccccc3)c2)N1c1ccc(Cl)cc1 (centres undefined),> 100,95.8,> 100 µM,87.7 µM,> 100,> 100,75 µM,> 100 µM,> 100 µM,> 100 µM,50.9 µM,–,–,–
COc1ccccc1/C=C1\SC(=S)N(/C=C2\C(=O)Oc3ccccc3C2=O)C1=O,> 100,55.6,> 100 µM,86.5 µM,85.3,76,> 100 µM,> 100 µM,83.2 µM,> 100 µM,> 100 µM,–,–,–
CCOP(C)(=O)C(N)Cc1ccc(OC)c(OC)c1 (centres undefined),> 100,> 100,> 100 µM,> 100 µM,> 100,> 100,> 100 µM,> 100 µM,> 100 µM,> 100 µM,> 100 µM,–,–,–
CSc1ccc2c(cc1=O)[C@@H](NC(=O)c1ccc(N)cc1)CCc1cc(O)c(O)c(O)c1-2,> 100,> 100,40.1 µM and 5.49 µM,51 µM and > 100 µM,27.6,> 100,37.4 µM and 43.8 µM,> 75 µM and 43.6 µM,33.8 µM and > 100 µM,47.8 µM and > 100 µM,> 75 µM and 22.9 µM,16.6 µM and 1.75 µM,24.3 µM and 10.2 µM,12 µM and 4.07 µM
Oc1c(CN2CCOCC2)ccc2cccnc12,> 10,> 10,> 10 µM,> 10 µM,> 10,> 10,> 10 µM,> 10 µM,> 10 µM,> 10 µM,> 10 µM,–,–,–
Cc1ccc2c(c1)C(C(=O)N[C@@H]1C(=O)N3[C@@H]1SC(C)(C)[C@@H]3C(=O)O)OCCC2 (some centres undefined),> 100,> 100,> 100 µM,> 100 µM,> 100,> 100,> 100 µM,> 100 µM,> 100 µM,> 100 µM,> 100 µM,–,–,–
CON(C)C(=O)CNC(=O)OCC1c2ccccc2-c2ccccc21,> 100,> 100,> 100 µM,> 100 µM,> 100,> 100,> 100 µM,> 100 µM,> 100 µM,> 100 µM,53.1 µM,–,–,–
